Among the data in US11008323B2, “Substituted tricyclic 1,4-benzodiazepinone derivatives as allosteric modulators of group II metabotropic glutamate receptors” (Domain Therapeutics, priority 2015, dated 2021) are melting point and EC50 values, retold here.

One series addresses T1, human mGluR3 (hmGluR3) (Homo sapiens, UniProt Q14832).
T1 construct: expressed in transfected cells; host or cells: HEK-293 cells, transient co-transfection by electroporation
Kind of series: Human mGluR3 positive allosteric modulator evaluation using Ca++ functional assay. Conditions: hmGluR3 transiently over-expressed in HEK-293 cells; stimulated by EC50 glutamate concentration; intracellular Ca2+ (Fluo4AM, FLIPR Tetra). The series is classed as cell-based. In a few lines:
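Calcium flux (Fluo4, ex 485/em 525 nm) recorded first 10 min with compound alone, then 3 min after an EC50 glutamate challenge, giving agonist and PAM EC50 from 20-concentration sigmoidal fits. Receptor was transiently co-transfected in HEK-293 with chimeric G protein and glutamate transporters.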

pEC50: −log10 of the molar value.

T1 sequence (Q14832 23-879): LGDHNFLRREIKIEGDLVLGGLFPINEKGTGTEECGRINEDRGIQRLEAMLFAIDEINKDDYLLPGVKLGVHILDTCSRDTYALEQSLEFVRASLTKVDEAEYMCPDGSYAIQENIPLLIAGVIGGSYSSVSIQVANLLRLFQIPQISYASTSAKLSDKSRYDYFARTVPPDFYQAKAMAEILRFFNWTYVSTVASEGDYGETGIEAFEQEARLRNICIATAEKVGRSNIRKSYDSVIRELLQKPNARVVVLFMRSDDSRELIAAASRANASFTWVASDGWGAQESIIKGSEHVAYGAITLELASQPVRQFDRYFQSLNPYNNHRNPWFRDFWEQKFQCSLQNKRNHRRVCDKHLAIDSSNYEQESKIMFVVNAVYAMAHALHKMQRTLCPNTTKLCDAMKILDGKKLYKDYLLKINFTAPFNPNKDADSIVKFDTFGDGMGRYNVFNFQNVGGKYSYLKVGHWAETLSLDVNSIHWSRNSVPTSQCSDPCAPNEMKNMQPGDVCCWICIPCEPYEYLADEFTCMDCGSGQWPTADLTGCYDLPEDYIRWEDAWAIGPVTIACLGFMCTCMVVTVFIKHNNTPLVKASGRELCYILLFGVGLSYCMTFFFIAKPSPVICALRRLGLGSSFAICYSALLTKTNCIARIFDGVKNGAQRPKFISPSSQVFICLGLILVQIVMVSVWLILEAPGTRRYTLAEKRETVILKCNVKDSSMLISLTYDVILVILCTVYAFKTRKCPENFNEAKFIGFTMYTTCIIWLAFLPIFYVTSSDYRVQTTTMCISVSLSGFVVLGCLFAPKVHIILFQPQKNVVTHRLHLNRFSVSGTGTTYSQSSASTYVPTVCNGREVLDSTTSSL

`Cc1ncccc1-c1ccc2c(c1)-n1cc(C#N)cc1C(=O)N(C)C21CC1` [Example 153]: the melting point was above 250 °C. The pEC50 at human mGluR3 (hmGluR3) is 6.00 to 7.00.
With `CN1C(=O)c2cccn2-c2cc(-c3ccc(C(F)(F)F)cn3)ccc2C12CC2` [Example 69, 5-Methyl-9-(5-trifluoromethylpyridin-2-yl)-spiro[benzo[f]pyrrolo[1,2-a][1,4]diazepine-6,1′-cyclopropan]-4(5H)-one], the melting point lay in the range of 78 to 89 °C. Also, the pEC50 on human mGluR3 (hmGluR3) is 6.00 to 7.00.
In turn, `Cc1ncccc1-c1ccc2c(c1)-n1cccc1C(=O)N(C)C21CC1` [Example 20, 5-Methyl-9-(2-methyl-pyridin-3-yl)-spiro[benzo[f]pyrrolo[1,2-a][1,4]diazepine-6,1′-cyclopropan]-4(5H)-one] gave a melting point of 200 to 210 °C. On human mGluR3 (hmGluR3), this molecule gave a pEC50 of 6.00 to 7.00.
`CN1C(=O)c2cccn2-c2cc(-c3ccc(F)nc3)ccc2C12CC2` [Example 31, 5-Methyl-9-(6-fluoropyridin-3-yl)-spiro[benzo[f]pyrrolo[1,2-a][1,4]diazepine-6,1′-cyclopropan]-4(5H)-one] came in with a melting point of 171 to 176 °C. In addition, the pEC50 at human mGluR3 (hmGluR3) is above 7.00.
The molecule `CC(=O)N1CC=C(c2ccc3c(c2)-n2cccc2C(=O)N(C)C32CC2)CC1` [Example 48, 5-Methyl-9-(1-acetyl-1,2,3,6-tetrahydro-pyridin-4-yl)-spiro[benzo[f]pyrrolo[1,2-a][1,4]diazepine-6,1′-cyclopropan]-4(5H)-one] yielded a melting point of 101 to 110 °C. Moreover, the pEC50 at human mGluR3 (hmGluR3) was 6.00 to 7.00.
In the case of `Cc1n[nH]c(C)c1-c1ccc2c(c1)-n1cccc1C(=O)N(C)C21CC1` [Example 27, 5-Methyl-9-(3,5-dimethyl-1H-pyrazol-4-yl)-spiro[benzo[f]pyrrolo[1,2-a][1,4]diazepine-6,1′-cyclopropan]-4(5H)-one], the melting point lay in the range of 115 to 125 °C. The molecule also had a pEC50 at human mGluR3 (hmGluR3) below 6.00.
Consider `CN1C(=O)c2cccn2-c2cc(-c3c[nH]nc3C(F)(F)F)ccc2C12CC2` [Example 28, 5-Methyl-9-(3-trifluoromethyl-1H-pyrazol-4-yl)-spiro[benzo[f]pyrrolo[1,2-a][1,4]diazepine-6,1′-cyclopropan]-4(5H)-one], for which the melting point was above 250 °C. At human mGluR3 (hmGluR3), the pEC50 is below 6.00.
Take `Cc1ncccc1-c1ccc2c(c1)-n1cc(C(=O)O)cc1C(=O)N(C)C21CC1` [Example 176, 5-Methyl-9-(2-methylpyridin-3-yl)-4-oxo-4,5-dihydrospiro[benzo[f]pyrrolo[1,2-a][1,4]diazepine-6,1′-cyclopropane]-2-carboxylic acid]: the melting point was above 250 °C. Besides, on human mGluR3 (hmGluR3), the pEC50 is 6.00 to 7.00.
Take `CN1C(=O)c2cc(-c3ccccc3)nn2-c2cc(-c3cn[nH]c3)ccc2C12CC2` [Example 134, 9-(1H-pyrazol-4-yl)-5-methyl-2-phenyl-spiro[benzo[f]pyrazolo[1,5-a][1,4]diazepine-6,1′-cyclopropan]-4(5H)-one]: the melting point was 199 to 208 °C. This molecule also showed a pEC50 on human mGluR3 (hmGluR3) of 6.00 to 7.00.
Taken in the same sequence, the figures for `CN(C)c1ccc(-c2ccc3c(c2)-n2cc(-c4nnco4)cc2C(=O)N(C)C32CC2)cn1` [Example 190] were above 250 °C and above 7.00.
Molecule `CN1C(=O)c2cccn2-c2cc(-c3cnn(C)c3)ccc2C12CC2` [Example 29, 5-Methyl-9-(1-methyl-pyrazol-4-yl)-spiro[benzo[f]pyrrolo[1,2-a][1,4]diazepine-6,1′-cyclopropan]-4(5H)-one] gave a melting point of 75 to 83 °C. On human mGluR3 (hmGluR3), this molecule gave a pEC50 of 6.00 to 7.00.
Take `Cc1ncoc1-c1ccc2c(c1)-n1cccc1C(=O)N(C)C21CC1` [Example 49, 5-Methyl-9-(4-methyl-oxazol-5-yl)-spiro[benzo[f]pyrrolo[1,2-a][1,4]diazepine-6,1′-cyclopropan]-4(5H)-one]: the melting point is 120 to 128 °C. At human mGluR3 (hmGluR3), this molecule gave a pEC50 below 6.00.
`CN1C(=O)c2cc(-c3ccccc3)nn2-c2cc(-c3cccc(S(=O)(=O)N(C)C)c3)ccc2C12CC2` [Example 142, N,N-dimethyl-3-(5-methyl-4-oxo-2-phenyl-4,5-dihydrospiro[benzo[f]pyrazolo[1,5-a][1,4]diazepine-6,1′-cyclopropan]-9-yl)benzenesulfonamide] came in with a melting point of 182 to 189 °C. Further, the pEC50 at human mGluR3 (hmGluR3) is 6.00 to 7.00.
`CN1C(=O)c2cc(-c3ccccc3)cn2-c2cc(-c3ccc(C#N)nc3)ccc2C12CC2` [Example 117, 5-Methyl-2-phenyl-9-(6-cyano-pyridin-3-yl)-spiro[benzo[f]pyrrolo[1,2-a][1,4]diazepine-6,1′-cyclopropan]-4(5H)-one] gave a melting point of 200 to 204 °C. Besides, the pEC50 at human mGluR3 (hmGluR3) was 6.00 to 7.00.
Turning to `CN1C(=O)c2cc(-c3ccccc3)cn2-c2cc(-c3ccc(F)nc3)ccc2C12CC2` [Example 106, 5-Methyl-2-phenyl-9-(6-fluoro-pyridin-3-yl)-spiro[benzo[f]pyrrolo[1,2-a][1,4]diazepine-6,1′-cyclopropan]-4(5H)-one], the melting point was in the range of 177 to 184 °C. Also, the pEC50 at human mGluR3 (hmGluR3) is above 7.00.
As for `CN1C(=O)c2cc(-c3ccccc3)nn2-c2cc(-c3cnco3)ccc2C12CC2` [Example 132, 9-(Oxazol-5-yl)-5-methyl-2-phenyl-spiro[benzo[f]pyrazolo[1,5-a][1,4]diazepine-6,1′-cyclopropan]-4(5H)-one], the melting point lay within 214 to 220 °C. On human mGluR3 (hmGluR3), the pEC50 is 6.00 to 7.00.
Regarding `COc1ncccc1-c1ccc2c(c1)-n1cc(-c3ccccc3)cc1C(=O)N(C)C21CC1` [Example 116, 5-Methyl-2-phenyl-9-(2-methoxy-pyridin-3-yl)-spiro[benzo[f]pyrrolo[1,2-a][1,4]diazepine-6,1′-cyclopropan]-4(5H)-one], the melting point lay within 183 to 186 °C. Further, on human mGluR3 (hmGluR3), the pEC50 was 6.00 to 7.00.
Regarding `CN1C(=O)c2cccn2-c2c(C#N)cccc2C12CC2` [Example 91, 10-Cyano-5-methyl-spiro[benzo[f]pyrrolo[1,2-a][1,4]diazepine-6,1′-cyclopropan]-4(5H)-one], the melting point worked out at 250 °C. The same molecule showed a pEC50 at human mGluR3 (hmGluR3) below 6.00.
`CN1C(=O)c2cc(-c3ccccc3)nn2-c2cc(-c3ccc(N)cc3)ccc2C12CC2` [Example 124, 9-(4-Amino-phenyl)-5-methyl-2-phenyl-spiro[benzo[f]pyrazolo[1,5-a][1,4]diazepine-6,1′-cyclopropan]-4(5H)-one] returned a melting point of 195 to 209 °C. The molecule also had a pEC50 on human mGluR3 (hmGluR3) below 6.00.
Taken in the same sequence, the figures for `CN1C(=O)c2cccn2-c2cc(-c3cccc(-c4nnn[nH]4)c3)ccc2C12CC2` [Example 45, 5-Methyl-9-(3-(1H-tetrazol-5-yl)-phenyl)-spiro[benzo[f]pyrrolo[1,2-a][1,4]diazepine-6,1′-cyclopropan]-4(5H)-one] were above 250 °C and 6.00 to 7.00.
For `Cc1cccc2c1-n1cccc1C(=O)N(C)C21CC1` [Example 90, 5,10-Dimethyl-spiro[benzo[f]pyrrolo[1,2-a][1,4]diazepine-6,1′-cyclopropan]-4(5H)-one], the melting point was in the range of 200 to 207 °C. The molecule further had a pEC50 at human mGluR3 (hmGluR3) below 6.00.
The molecule `CN1C(=O)c2cccn2-c2cc(-c3ccnn3C)ccc2C12CC2` [Example 30, 5-Methyl-9-(1-methyl-pyrazol-5-yl)-spiro[benzo[f]pyrrolo[1,2-a][1,4]diazepine-6,1′-cyclopropan]-4(5H)-one] displayed a melting point of 214 to 220 °C. For the same molecule, the pEC50 on human mGluR3 (hmGluR3) was 6.00 to 7.00.
Taken in the same sequence, the figures for `Cc1ncccc1-c1ccc2c(c1)-n1cc(-c3nnco3)cc1C(=O)N(C)C21CC1` [Example 185] were above 250 °C and above 7.00.
The like results for `CN1C(=O)c2cccn2-c2cc(CCC#N)ccc2C12CC2` [Example 53, 5-Methyl-9-propionitrile-spiro[benzo[f]pyrrolo[1,2-a][1,4]diazepine-6,1′-cyclopropan]-4(5H)-one] were, in that order, 59 to 64 °C and below 6.00.
`CN1C(=O)c2cc(-c3ccccc3)nn2-c2cc(-c3cccc(C(=O)O)c3)ccc2C12CC2` [Example 133, 3-(5-methyl-4-oxo-2-phenyl-4,5-dihydrospiro[benzo[f]pyrazolo[1,5-a][1,4]diazepine-6,1′-cyclopropan]-9-yl)benzoic acid] returned a melting point of 211 to 217 °C. Besides, the pEC50 on human mGluR3 (hmGluR3) is above 7.00.
Molecule `Cc1nc(F)ccc1-c1ccc2c(c1)-n1cccc1C(=O)N(C)C21CC1` [Example 32, 5-Methyl-9-(6-fluoro-2-methylpyridin-3-yl)-spiro[benzo[f]pyrrolo[1,2-a][1,4]diazepine-6,1′-cyclopropan]-4(5H)-one] displayed a melting point of 198 to 202 °C. Moreover, the pEC50 on human mGluR3 (hmGluR3) was above 7.00.
Molecule `CN1C(=O)c2cccn2-c2cc(-c3cc[nH]c(=O)c3)ccc2C12CC2` [Example 68, 5-Methyl-9-(2-hydroxypyridin-4-yl)-spiro[benzo[f]pyrrolo[1,2-a][1,4]diazepine-6,1′-cyclopropan]-4(5H)-one] returned a melting point of 183 to 197 °C. At human mGluR3 (hmGluR3), this molecule gave a pEC50 below 6.00.
For `CN1C(=O)c2cccn2-c2cc(C=CC#N)ccc2C12CC2` (mixture of isomers) [Example 52, 5-Methyl-9-actylonitrile-spiro[benzo[f]pyrrolo[1,2-a][1,4]diazepine-6,1′-cyclopropan]-4(5H)-one], the melting point lay in the range of 130 to 138 °C. Also, on human mGluR3 (hmGluR3), the pEC50 was 6.00 to 7.00.
For `CN1C(=O)c2cccn2-c2cc(-c3ccc(F)nc3)cc(F)c2C12CC2` [Example 74, 7-Fluoro-5-methyl-9-(6-fluoro-pyridin-3-yl)-spiro[benzo[f]pyrrolo[1,2-a][1,4]diazepine-6,1′-cyclopropan]-4(5H)-one], the melting point is 220 to 225 °C. Further, on human mGluR3 (hmGluR3), the pEC50 is above 7.00.
